Consider 39 compounds from patent US5298619A, “1,4-dihydropyridine compounds with PAF-antagonistic activity” (Alter, S.A., priority 1991, dated 1994).

One experiment concerns PAF. The note with it: cited from earlier work; for PAF antagonistic properties: background statement.
For experiment [1], the system named is aggregation induced by 1-PAF in rabbit platelets. Nature of the experiment: Effect on the aggregation induced by 1-PAF in rabbit platelets (washed platelets). Format: cell-based, rabbit (male, albino, New Zealand). The note with it: Oryctolagus cuniculus, Platelet, 37° C., 5 min preincubation, 1-PAF=1.92 nM, compounds 10 to 0.1 micM, mean of three experiments in duplicate. As to the method: STUDIES WITH WASHED PLATELETS: Aggregation
The suspensions of washed platelets were obtained from rabbit's blood (male, albino, New Zealand), anticoagulated with a solution of citric acid citrate/sodium dextrose in the ratio 1:6 (v:v).
The platelet rich plasma (PRP) was obtained by centrifuging blood samples at 100×g for 10 minutes and the platelets by centrifuging the PRP at 1,800×g for 15 minutes at 4° C. The pellet obtained in this way was washed twice with Tyrode tampon containing citric acid, PGE and aspirase, pH 6.5. The platelets so-washed were finally resuspended in Hepes-Tyrode tampon, pH 7.35 supplemented with bovine seric albumin at 0.35%; Ca++ 2 mM.
The final platelet concentration was adjusted to 300,000 platelets/mic-1. The aggregation was measured turbidimetrically using a lumiaggregometre (Chrono-Log.Co; Haventon, Pa., USA) at 37° C. under stirring at 1,100 r.p.m. The study was made in aliquots of preincubated PRP, with the compounds under study, for 5 minutes. The concentration of the antagonists was, in all cases, between 10 micM and 0.1 micM. The aggregation was induced by adding L-PAF diluted in 5 micl of Hepes/albumin tampon, the final concentration being 1.9×0,000000001. The IC50 for each compound was evaluated graphically from the dose-response curves.
The data reflected is the mean of three experiments performed in duplicate. Concentration of 1-PAF=1.92 nM.
The concentrations of compounds, in all cases, were between 10 and 0.1 micM .

For the next experiment, the system named is bronchoconstriction. The note with it: doses times lower than histamine; cited from earlier work.

Regarding `COc1ccc([C@@H]2Sc3ccccc3N(CCN(C)C)C(=O)[C@@H]2OC(C)=O)cc1` [Diltiazem], in the experiment on PAF, the PAF antagonistic properties entry is recorded as “present PAF antagonistic properties”.
As to `COC(=O)C1=C(C)NC(C)=C(C(=O)OCCCSc2ccc(Cl)cc2)C1C` (centres unmarked) [Example 1, 3-(4-chlorophenylthio) propyl 5-methoxycarbonyl-2,4,6-trimethyl-1,4-dihydropyridine-3-carboxylate], half-maximal inhibition in experiment [1] (IC50) was put at 340 nM.
With `COC(=O)C1=C(C)NC(C)=C(C(=O)OCCS(=O)(=O)c2ccc(C)cc2)C1C` (centres unmarked) [Example 2, 2-(4-methylphenylsulphonyl) ethyl 5-methoxycarbonyl-2,4,6-trimethyl-1,4-dihydropyridine-3-carboxylate], the IC50 (as a rule, the concentration needed to halve the response being measured) in experiment [1] worked out at 1100 nM.
On the same count and under the same terms, the value for `COC(=O)C1=C(C)NC(C)=C(C(=O)OCCCOc2ccc(-c3ccccc3)cc2)C1C` (centres unmarked) [Example 3, 3-(4-phenylphenoxy) propyl 5-methoxycarbonyl-2,4,6-trimethyl-1,4-dihydropyridine-3-carboxylate] was 240 nM; that for `COC(=O)C1=C(C)NC(C)=C(C(=O)OCCCSc2ccc(C)cc2)C1C` (centres unmarked) [Example 4, 3-(4-methylphenylthio) propyl 5-methoxycarbonyl-2,4,6-trimethyl-1,4-dihydropyridine-3-carboxylate] was 850 nM.
Turning to `COC(=O)C1=C(C)NC(C)=C(C(=O)OCCS(=O)(=O)c2ccccc2)C1C` (centres unmarked) [Example 5, 2-(phenylsulphonyl) ethyl 5-methoxycarbonyl-2,4,6-trimethyl-1,4-dihydropyridine-3-carboxylate], in experiment [1], the concentration for half-maximal inhibition (IC50) stood at 1300 nM.
`COC(=O)C1=C(C)NC(C)=C(C(=O)OCCCOc2ccccc2)C1C` (centres unmarked) [Example 6] returned an IC50 in experiment [1] of 3000 nM.
The same measure, in the same setting: in the case of `COC(=O)C1=C(C)NC(C)=C(C(=O)OCCCS(=O)(=O)c2ccccc2)C1C` (centres unmarked) [Example 13] it was 2300 nM; in that of `COC(=O)C1=C(C)NC(C)=C(C(=O)OCCCSc2ccc(NC(C)=O)cc2)C1C` (centres unmarked) [Example 30], 3100 nM.
Take `COC(=O)C1=C(C)NC(C)=C(C(=O)OCCCOc2ccc(Cl)c(Cl)c2)C1C` (centres unmarked) [Example 41]: the IC50 in experiment [1] worked out at 2700 nM.
The compound `COC(=O)C1=C(C)NC(C)=C(C(=O)OCCCSc2ccc(Cl)c(Cl)c2)C1C` (centres unmarked) [Example 45] gave an IC50 in experiment [1] of 150 nM.
Still for that read-out and setting: in the case of `CCOC(=O)C1=C(C)NC(C)=C(C(=O)OCCCSc2ccc(Cl)c(Cl)c2)C1C` (centres unmarked) [Example 46] it was 1400 nM; in that of `COC(=O)C1=C(C)NC(C)=C(C(=O)OCCCOc2ccc(C)cc2)C1C` (centres unmarked) [Example 48], 4000 nM.
In turn, `COC(=O)C1=C(C)NC(C)=C(C(=O)OCCCS(=O)(=O)c2ccc(C)cc2)C1C` (centres unmarked) [Example 52] came in with an IC50 in experiment [1] of 2700 nM.
The same measure, in the same setting: the value for `COC(=O)C1=C(C)NC(C)=C(C(=O)OCCCOc2ccc(OC)cc2)C1C` (centres unmarked) [Example 61] was 2000 nM; that for `COC(=O)C1=C(C)NC(C)=C(C(=O)OCCOc2ccc(OC)cc2)C1C` (centres unmarked) [Example 62] was 10000 nM; that for `COC(=O)C1=C(C)NC(C)=C(C(=O)OCCOc2ccc(-c3ccccc3)cc2)C1C` (centres unmarked) [Example 64] was 2800 nM.
On the same count and under the same terms, the value for `CCOC(=O)C1=C(C)NC(C)=C(C(=O)OCCCOc2ccc(-c3ccccc3)cc2)C1C` (centres unmarked) [Example 66] was 2400 nM; that for `CCOC(=O)C1=C(C)NC(C)=C(C(=O)OCCS(=O)(=O)c2ccccc2)C1C` (centres unmarked) [Example 74] was 2800 nM.
On the same count and under the same terms, in the case of `COC(=O)C1=C(C)NC(C)=C(C(=O)OCCCSc2ccc([N+](=O)[O-])cc2)C1C` (centres unmarked) [Example 76] it was 2800 nM.
For `CCOC(=O)C1=C(C)NC(C)=C(C(=O)OCCCSc2ccc(Cl)cc2)C1C` (centres unmarked) [Example 82], the midpoint of inhibition in experiment [1], the IC50, lay at 2800 nM.
On to `COC(=O)C1=C(C)NC(C)=C(C(=O)OCCOc2ccc([N+](=O)[O-])cc2)C1C` (centres unmarked) [Example 110], for which the IC50 in experiment [1] was 4300 nM.
`COC(=O)C1=C(C)NC(C)=C(C(=O)OCCOc2cccc3ccccc23)C1C` (centres unmarked) [Example 113] gave an IC50 in experiment [1] of 3000 nM.
On the same count and under the same terms, the value for `COC(=O)C1=C(C)NC(C)=C(C(=O)OCCOc2ccc(Cl)cc2)C1C` (centres unmarked) [Example 131] was 10000 nM; that for `CCOC(=O)C1=C(C)NC(C)=C(C(=O)OCCCOc2cccc(N(C)C)c2)C1C` (centres unmarked) [Example 133] was 2400 nM.
As for `COC(=O)C1=C(C)NC(C)=C(C(=O)OCCOc2cccc(N(C)C)c2)C1C` (centres unmarked) [Example 135], the IC50 in experiment [1] amounted to 2800 nM.
In experiment [1], `COC(=O)C1=C(C)NC(C)=C(C(=O)OCCCOc2ccc(Oc3ccccc3)cc2)C1C` (centres unmarked) [Example 139] came in with an IC50 of 700 nM.
Turning to `COC(=O)C1=C(C)NC(C)=C(C(=O)OCCOc2ccc(Oc3ccccc3)cc2)C1C` (centres unmarked) [Example 140], in experiment [1], half-maximal inhibition (IC50) was put at 2000 nM.
As for `CCOC(=O)C1=C(C)NC(C)=C(C(=O)OCCCOc2ccc3ccccc3c2)C1C` (centres unmarked) [Example 152, 3-(2-naphthyloxy) propyl 5-ethoxycarbonyl-2,4,6-trimethyl-1,4-dihydropyridine-3-carboxylate], the IC50 in experiment [1] is 3000 nM.
For `COC(=O)C1=C(C)NC(C)=C(C(=O)OCCCOc2cccc3ccccc23)C1C` (centres unmarked) [Example 154], inhibition in experiment [1] was half-maximal at 1100 nM (IC50).
In experiment [1], `COC(=O)C1=C(C)NC(C)=C(C(=O)OCCCSc2ccccc2)C1C` (centres unmarked) [Example 163, 3-(phenylthio) propyl 5-methoxycarbonyl-2,4,6-trimethyl-1,4-dihydropyridine-3-carboxylate] displayed an IC50 of 410 nM.
In experiment [1], `CCC1C(C(=O)OC)=C(C)NC(C)=C1C(=O)OCCCSc1ccc(Cl)cc1` (centres unmarked) [Example 164, 3-(4-chlorophenylthio) propyl 2,6-dimethyl-4-ethyl-5-methoxycarbonyl-1,4-dihydropyridine-3-carboxylate] came in with an IC50 of 320 nM.
As for `CCOC(=O)C1=C(C)NC(C)=C(C(=O)OCCCSc2ccc(Cl)cc2)C1CC` (centres unmarked) [Example 165, 3-(4-chlorophenylthio) propyl 2,6-dimethyl-4-ethyl-5-ethoxycarbonyl-1,4-dihydropyridine-3-carboxylate], in experiment [1], the IC50 came to 2500 nM.
On the same count and under the same terms, the value for `CCOC(=O)C1=C(C)NC(C)=C(C(=O)OCCCSc2ccccc2)C1C` (centres unmarked) [Example 166] was 2600 nM; that for `COC(=O)C1=C(C)NC(C)=C(C(=O)OCCCSc2ccc3ccccc3c2)C1C` (centres unmarked) [Example 167] was 400 nM; that for `CCC1C(C(=O)OC)=C(C)NC(C)=C1C(=O)OCCCSc1ccc(C)cc1` (centres unmarked) [Example 172] was 190 nM.
Regarding `COc1ccc(CCN(C)CCCC(C#N)(c2cc(OC)c(OC)c(OC)c2)C(C)C)cc1OC` (centres unmarked) [Gallopamil], the PAF antagonistic properties entry in the experiment with PAF is on record as “present PAF antagonistic properties”.
With `COC(=O)C1=C(C)NC(C)=C(C(=O)OC)C1c1ccccc1[N+](=O)[O-]` [Nifedipina], in the experiment on PAF, the PAF antagonistic properties result is listed as “only show a very weak activity”. Besides, the “concentrations needed to obtain an effect, relative to those inhibiting calcium flow in other cells” value with PAF (fold higher than those inhibiting calcium flow in other cells) is given as 1,000,000. For the same compound, the “concentrations needed to obtain an effect, relative to the specific antagonists of the PAF-"acether"” value in the experiment on PAF (times greater than the specific antagonists of the PAF-"acether") is given as ≥ 1,000 times.
With `CCCCCCCCCCCCCCCCOCC(COP(=O)([O-])OCC[N+](C)(C)C)OC(C)=O` (centres unmarked) [PAF-"acether", 1-O-hexadecyl/octodecyl-2-acetyl-sn-glycero-3-phosphocoline], the “doses inducing bronchoconstriction, relative to histamine” value in the experiment on bronchoconstriction is on record as 100 times lower.
